Measured values taken from publication PMC11915372, “Identification of a Series Containing a Pentafluorophenyl Moiety That Targets Pks13 to Inhibit Growth of Mycobacterium tuberculosis” (ACS Infectious Diseases, 2025).
In brackets after ≈: the same amount, converted by molar mass. Like-named read-outs stand apart in the source and are kept apart here.

Tests used:
[1] = system: M. tuberculosis (H37Rv); assay: microbe, parasite or virus in culture; format: cell-based, Mycobacterium tuberculosis; details: for MIC: Mycobacterium tuberculosis, H37RV
[2] = physchem; format: physicochemical
[3] = format: in vitro ADME, mouse; details: for Microsomal Cli: CD1, mouse; for Mouse micro Cl: microsomes
[4] = format: in vitro ADME, mouse; details: mouse; for Mouse Heps Cl: hepatocytes
[5] = physchem; details: pH 7.4
[6] = system: HepG2 cells; assay: HepG2 cytotoxicity; details: Homo sapiens, HepG2, read-out: HepG2 inhibitory concentration (IC50)
Description: Assays to establish HepG2 cytotoxicity, in vitro microsomal/hepatocyte metabolic stability, aqueous kinetic solubility, and in vivo pharmacokinetic profiles were all performed as previously described.[15],[35]−[37]

[7] = system: M. tuberculosis H37Rv; format: in vivo; details: C57BL/6J mice, oral dosing for 8 days from day 1 post-infection, qPCR
[8] = human liver microsomes, glutathione conjugation
[9] = system: mycolic acid biosynthesis; details: with accumulation of mycolic acid precursors; cited from earlier work
[10] = read-out: Wk2_7H9/DPPC/ casitone/ Tyloxapol MIC
[11] = read-out: Wk2_ 7H9/DPPC/ cholesterol/BSA/ Tyloxapol MIC
[12] = read-out: Wk2_7H9/glucose/ BSA/Tyloxapol MIC
[13] = read-out: Wk2_7H9/glucose/ casitone/ Tyloxapol MIC
[14] = pH 7.4, aqueous buffer, kinetic from dmso stock

SMILES: CCOC(=O)c1nc(CN(C)C)oc1NC(=O)c1c(F)c(F)c(F)c(F)c1F [Compound 35, CCOC(=O)c1nc(oc1NC(=O)c1c(c(c(c(c1F)F)F)F)F)CN(C)C]
- MIC ([1]; read-out: H37Rv MIC A): 2.3 µM (≈ 0.937 µg/mL)
- MIC ([1]; read-out: H37Rv MIC B): 4.7 µM (≈ 1.91 µg/mL)
- MIC [1, 10]: 2.3 µM (≈ 0.937 µg/mL)
- MIC [1, 11]: 4.7 µM (≈ 1.91 µg/mL)
- MIC [1, 12]: 4.7 µM (≈ 1.91 µg/mL)
- MIC [1, 13]: 1.6 µM (≈ 0.652 µg/mL)
- solubility kinetic [2, 14]: 225 µM (≈ 91.6 µg/mL)
- solubility kinetic ([2]; read-out: Kin. Sol): 225 µM (≈ 91.6 µg/mL)
- Microsomal Cli [3]: <0.5 mL/min/g
- Mouse micro Cl [3]: <0.5 mL/min/g
- Hepatocyte Cli [4]: 4.7 mL/min/g
- Mouse Heps Cl [4]: 4.7 mL/min/g
- chromatographic logD [5]: 1.3
- IC50 [6]: > 100 µM

SMILES: Cc1nc(C(=O)OC(C)(C)C)c(NC(=O)c2c(F)c(F)c(F)c(F)c2F)o1 [Compound 36, Cc1nc(c(o1)NC(=O)c1c(c(c(c(c1F)F)F)F)F)C(=O)OC(C)(C)C]
- MIC ([1]; read-out: H37Rv MIC A): 0.1 µM (≈ 0.0392 µg/mL)
- MIC ([1]; read-out: H37Rv MIC B): 0.4 µM (≈ 0.157 µg/mL)
- MIC [1, 10]: 0.1 µM (≈ 0.0392 µg/mL)
- MIC [1, 11]: 0.4 µM (≈ 0.157 µg/mL)
- MIC [1, 12]: 0.3 µM (≈ 0.118 µg/mL)
- MIC [1, 13]: 0.1 µM (≈ 0.0392 µg/mL)
- solubility kinetic [2, 14]: 127 µM (≈ 49.8 µg/mL)
- solubility kinetic ([2]; read-out: Kin. Sol): 127 µM (≈ 49.8 µg/mL)
- Microsomal Cli [3]: 1.1 mL/min/g
- Mouse micro Cl [3]: 1.1 mL/min/g
- Hepatocyte Cli [4]: 26 mL/min/g
- Mouse Heps Cl [4]: 26 mL/min/g
- chromatographic logD [5]: 2.8
- IC50 [6]: > 100 µM

SMILES: Cc1ncc(NC(=O)c2c(F)c(F)c(F)c(F)c2F)o1 [Compound 37, Cc1ncc(o1)NC(=O)c1c(c(c(c(c1F)F)F)F)F]
- MIC ([1]; read-out: H37Rv MIC A): > 50 µM
- MIC ([1]; read-out: H37Rv MIC B): > 50 µM
- MIC [1, 10]: > 50 µM
- MIC [1, 11]: > 50 µM
- MIC [1, 12]: > 50 µM
- MIC [1, 13]: > 50 µM
- solubility kinetic [2, 14]: 105 µM (≈ 30.7 µg/mL)
- solubility kinetic ([2]; read-out: Kin. Sol): 105 µM (≈ 30.7 µg/mL)
- Microsomal Cli [3]: <0.5 mL/min/g
- Mouse micro Cl [3]: <0.5 mL/min/g
- Hepatocyte Cli [4]: 5.8 mL/min/g
- Mouse Heps Cl [4]: 5.8 mL/min/g
- chromatographic logD [5]: 1.9
- IC50 [6]: > 100 µM

SMILES: Cc1nc(C(=O)O)c(NC(=O)c2c(F)c(F)c(F)c(F)c2F)o1 [Compound 38, Cc1nc(c(o1)NC(=O)c1c(c(c(c(c1F)F)F)F)F)C(=O)O]
- MIC ([1]; read-out: H37Rv MIC A): > 50 µM
- MIC ([1]; read-out: H37Rv MIC B): > 50 µM
- MIC [1, 10]: 5.4 µM (≈ 1.82 µg/mL)
- MIC [1, 11]: > 50 µM
- MIC [1, 12]: 43 µM (≈ 14.5 µg/mL)
- MIC [1, 13]: 7.7 µM (≈ 2.59 µg/mL)
- solubility kinetic [2, 14]: 250 µM (≈ 84 µg/mL)
- solubility kinetic ([2]; read-out: Kin. Sol): 250 µM (≈ 84 µg/mL)
- Microsomal Cli [3]: <0.5 mL/min/g
- Mouse micro Cl [3]: <0.5 mL/min/g
- Hepatocyte Cli [4]: 1.3 mL/min/g
- Mouse Heps Cl [4]: 1.3 mL/min/g
- chromatographic logD [5]: 0.78
- IC50 [6]: > 100 µM

SMILES: CC(=O)c1nc(C)oc1NC(=O)c1c(F)c(F)c(F)c(F)c1F [Compound 39, CC(=O)c1nc(oc1NC(=O)c1c(c(c(c(c1F)F)F)F)F)C]
- MIC ([1]; read-out: H37Rv MIC A): 1.2 µM (≈ 0.401 µg/mL)
- MIC ([1]; read-out: H37Rv MIC B): 3.1 µM (≈ 1.04 µg/mL)
- MIC [1, 10]: 1.2 µM (≈ 0.401 µg/mL)
- MIC [1, 11]: 3.1 µM (≈ 1.04 µg/mL)
- MIC [1, 12]: 3.1 µM (≈ 1.04 µg/mL)
- MIC [1, 13]: 1.2 µM (≈ 0.401 µg/mL)
- solubility kinetic [2, 14]: 241 µM (≈ 80.5 µg/mL)
- solubility kinetic ([2]; read-out: Kin. Sol): 241 µM (≈ 80.5 µg/mL)
- Microsomal Cli [3]: <0.5 mL/min/g
- Mouse micro Cl [3]: <0.5 mL/min/g
- Hepatocyte Cli [4]: 8.6 mL/min/g
- Mouse Heps Cl [4]: 8.6 mL/min/g
- chromatographic logD [5]: 1.2
- IC50 [6]: > 100 µM

SMILES: Cc1nc(C(=O)N(C)C)c(NC(=O)c2c(F)c(F)c(F)c(F)c2F)o1 [Compound 40, CN(C)C(=O)c1nc(oc1NC(=O)c1c(c(c(c(c1F)F)F)F)F)C]
- MIC ([1]; read-out: H37Rv MIC A): 12.5 µM (≈ 4.54 µg/mL)
- MIC ([1]; read-out: H37Rv MIC B): 19 µM (≈ 6.9 µg/mL)
- MIC [1, 10]: 12.5 µM (≈ 4.54 µg/mL)
- MIC [1, 11]: 19 µM (≈ 6.9 µg/mL)
- MIC [1, 12]: 19 µM (≈ 6.9 µg/mL)
- MIC [1, 13]: 9.4 µM (≈ 3.41 µg/mL)
- solubility kinetic [2, 14]: 242 µM (≈ 87.9 µg/mL)
- solubility kinetic ([2]; read-out: Kin. Sol): 242 µM (≈ 87.9 µg/mL)
- Microsomal Cli [3]: 0.846 mL/min/g
- Mouse micro Cl [3]: 0.85 mL/min/g
- Hepatocyte Cli [4]: 7.3 mL/min/g
- Mouse Heps Cl [4]: 7.3 mL/min/g
- chromatographic logD [5]: 1.4
- IC50 [6]: > 100 µM

SMILES: Cc1nc(-c2ncco2)c(NC(=O)c2c(F)c(F)c(F)c(F)c2F)o1 [Compound 41, Cc1nc(c(o1)NC(=O)c1c(c(c(c(c1F)F)F)F)F)-c1ncco1]
- MIC ([1]; read-out: H37Rv MIC A): 0.4 µM (≈ 0.144 µg/mL)
- MIC ([1]; read-out: H37Rv MIC B): 1.2 µM (≈ 0.431 µg/mL)
- MIC [1, 10]: 0.4 µM (≈ 0.144 µg/mL)
- MIC [1, 11]: 1.2 µM (≈ 0.431 µg/mL)
- MIC [1, 12]: 1.2 µM (≈ 0.431 µg/mL)
- MIC [1, 13]: 0.4 µM (≈ 0.144 µg/mL)
- solubility kinetic [2, 14]: 234 µM (≈ 84.1 µg/mL)
- solubility kinetic ([2]; read-out: Kin. Sol): 234 µM (≈ 84.1 µg/mL)
- Microsomal Cli [3]: 0.5 mL/min/g
- Mouse micro Cl [3]: 0.51 mL/min/g
- Hepatocyte Cli [4]: 12 mL/min/g
- Mouse Heps Cl [4]: 12 mL/min/g
- chromatographic logD [5]: 1.7
- IC50 [6]: > 100 µM

SMILES: Cc1nnc(-c2nc(C)oc2NC(=O)c2c(F)c(F)c(F)c(F)c2F)o1 [Compound 42, Cc1nnc(o1)-c1nc(oc1NC(=O)c1c(c(c(c(c1F)F)F)F)F)C]
- MIC ([1]; read-out: H37Rv MIC A): 2.3 µM (≈ 0.861 µg/mL)
- MIC ([1]; read-out: H37Rv MIC B): 6.3 µM (≈ 2.36 µg/mL)
- MIC [1, 10]: 2.3 µM (≈ 0.861 µg/mL)
- MIC [1, 11]: 6.3 µM (≈ 2.36 µg/mL)
- MIC [1, 12]: 4.7 µM (≈ 1.76 µg/mL)
- MIC [1, 13]: 2.3 µM (≈ 0.861 µg/mL)
- loss of MIC potency ([1]; relative to comparator of the series (21 vs thiophenes; 42 vs 24)): 10 fold
- solubility kinetic [2, 14]: 174 µM (≈ 65.1 µg/mL)
- solubility kinetic ([2]; read-out: Kin. Sol): 174 µM (≈ 65.1 µg/mL)
- Microsomal Cli [3]: <0.5 mL/min/g
- Mouse micro Cl [3]: <0.5 mL/min/g
- Hepatocyte Cli [4]: 2.5 mL/min/g
- Mouse Heps Cl [4]: 2.5 mL/min/g
- chromatographic logD [5]: 1.1
- IC50 [6]: > 100 µM

SMILES: COc1c(N2C[C@@H]3CCCN[C@@H]3C2)c(F)cc2c(=O)c(C(=O)O)cn(C3CC3)c12 [Moxifloxacin, reference compound]
- reduction in bacterial DNA in lungs compared to the untreated control [7]: ~3 log

SMILES: COC(=O)c1c(NC(=O)c2c(F)c(F)c(F)c(F)c2F)sc2c1CCCCC2 [TP2, reference compound]
- MIC ([1]; read-out: H37Rv MIC A): 0.11 µM (≈ 0.0461 µg/mL)
- MIC ([1]; read-out: H37Rv MIC B): 1.2 µM (≈ 0.503 µg/mL)
- solubility kinetic ([2]; water, kinetic from dmso stock): 0.2 µM (≈ 0.0839 µg/mL)
- Mouse micro Cl [3]: 15 mLmin/g
- Mouse Heps Cl [4]: 43.2 mLmin/g
- time to complete elimination of parent [8]: ≤ 6 min
- effect on mycolic acid biosynthesis [9]: inhibited mycolic acid biosynthesis
- chromatographic logD [5]: 4.6
- IC50 [6]: 13 µM

SMILES: CCOC(=O)c1c(NC(=O)c2c(F)c(F)c(F)c(F)c2F)sc(C(N)=O)c1C [TP4, reference compound]
- MIC ([1]; read-out: H37Rv MIC A): 0.03 µM (≈ 0.0127 µg/mL)
- MIC ([1]; read-out: H37Rv MIC B): 0.26 µM (≈ 0.11 µg/mL)
- solubility kinetic ([2]; water, kinetic from dmso stock): 1.1 µM (≈ 0.465 µg/mL)
- Mouse micro Cl [3]: 13 mLmin/g
- Mouse Heps Cl [4]: >50 mLmin/g
- effect on mycolic acid biosynthesis [9]: inhibited mycolic acid biosynthesis
- chromatographic logD [5]: 3.4
- IC50 [6]: 4.3 µM
